Values of other authors in US12171220B2, “High osmolarity antimicrobial composition containing one or more organic solvents” (Next Science IP Holdings Pty Ltd, priority 2013, dated 2024).

Conditions: alcohols, Table 2; room temperature

| SMILES | ~δp (MPa^1/2) |
| --- | --- |
| CCCCO [Example 1-butanol, 1-butanol] | ~5.7 MPa^1/2 |
| CC(C)(C)O [t-butyl alcohol] | ~5.1 MPa^1/2 |
| OCC(Cl)CCl (centres unmarked) [2,3-dichloropropanol] | ~9.2 MPa^1/2 |
| OC1CCCCC1 [cyclohexanol] | ~4.1 MPa^1/2 |
| CCCCCCCCCCO [Example 1-decanol, 1-decanol] | ~10.0 MPa^1/2 |
| CCCCC(CC)CO (centres unmarked) [2-ethyl-hexanol] | ~3.3 MPa^1/2 |
| OC1C=CCC1 (centres unmarked) [2-cyclopentenyl alcohol] | ~7.6 MPa^1/2 |
| CO [methanol] | ~12.3 MPa^1/2 |
| CCCCCO [Example 1-pentanol, 1-pentanol] | ~4.5 MPa^1/2 |
| CCC(CC)CO [2-ethyl-1-butanol] | ~4.3 MPa^1/2 |
| C=CCO [Example 2-propenol, 2-propenol] | ~10.8 MPa^1/2 |
| OCc1ccc(Cl)cc1 [4-chlorobenzyl alcohol] | ~7.5 MPa^1/2 |

Continued, values first:

| ~δp (MPa^1/2) | SMILES |
| --- | --- |
| ~8.8 MPa^1/2 | CCO [ethanol] |
| ~7.3 MPa^1/2 | CC(C)CCCCCO [isooctyl alcohol] |
| ~2.6 MPa^1/2 | CCCCCCCC/C=C\CCCCCCCCO [oleyl alcohol] |
| ~6.8 MPa^1/2 | CCCO [Example 1-propanol, 1-propanol] |
| ~10.0 MPa^1/2 | CCCCCCCCC(C)O (centres unmarked) [Example 2-decanol, 2-decanol] |
| ~6.1 MPa^1/2 | CC(C)O [Example 2-propanol, 2-propanol] |
| ~3.3 MPa^1/2 | CCCCCCCCO [octanol] |
| ~6.4 MPa^1/2 | CCCC(C)O (centres unmarked) [Example 2-pentanol, 2-pentanol] |

Same assay, conditions: glycol ethers, Table 1; room temperature

| SMILES | ~δp (MPa^1/2) |
| --- | --- |
| COCCOCCO [diethylene glycol monomethyl ether] | ~7.8 MPa^1/2 |
| OCCOc1ccccc1 [ethylene glycol monophenyl ether] | ~5.7 MPa^1/2 |
| COCCO [ethylene glycol monomethyl ether] | ~9.2 MPa^1/2 |
| CCOCCO [ethylene glycol monoethyl ether] | ~9.2 MPa^1/2 |

Results, then the molecule that gave them:

| ~δp (MPa^1/2) | SMILES |
| --- | --- |
| ~4.7 MPa^1/2 | CC(C)COCC(C)O (centres unmarked) [propylene glycol monoisobutyl ether] |
| ~7.6 MPa^1/2 | COCCOCCOCCO [triethylene glycol monomethyl ether] |
| ~5.9 MPa^1/2 | OCCOCc1ccccc1 [ethylene glycol monobenzyl ether] |
| ~6.1 MPa^1/2 | CC(O)COC(C)C (centres unmarked) [propylene glycol monoisopropyl ether] |
| ~5.6 MPa^1/2 | CCCOCC(C)O (centres unmarked) [propylene glycol monopropyl ether] |
| ~5.1 MPa^1/2 | CCCCOCCO [ethylene glycol monobutyl ether] |
| ~8.2 MPa^1/2 | CCCOCCO [ethylene glycol monopropyl ether] |
| ~6.3 MPa^1/2 | COCC(C)O (centres unmarked) [propylene glycol monomethyl ether] |
| ~4.5 MPa^1/2 | CCCCOCC(C)O (centres unmarked) [propylene glycol monobutyl ether] |
| ~8.2 MPa^1/2 | CC(C)OCCO [ethylene glycol monoisopropyl ether] |
| ~6.5 MPa^1/2 | CCOCC(C)O (centres unmarked) [propylene glycol monoethyl ether] |
| ~3.1 MPa^1/2 | CCCCCCCC/C=C\CCCCCCCCOCCOCCOCCO [triethylene glycol monooleyl ether] |
| ~7.0 MPa^1/2 | CCCCOCCOCCO [diethylene glycol mono-n-butyl ether] |
| ~9.2 MPa^1/2 | CCOCCOCCO [diethylene glycol monoethyl ether] |

Same assay, conditions: solvents added in Examples 65-80, text

| SMILES | δp |
| --- | --- |
| Clc1ccccc1 [chlorobenzene] | 4.3 |
| CCOC(C)=O [ethyl acetate] | 5.3 |

Same assay, conditions: water

| SMILES | δp |
| --- | --- |
| O [water] | ≈ 16.0 MPa^1/2 |
